Assay results: PubChem BioAssay (NCI)
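Cells were grown in 96-well plates and exposed to each compound for 48 hours at five concentrations; endpoints were interpolated linearly between bracketing concentrations, or set to the highest concentration if not reached. GI50 is the concentration that inhibits growth by half. TGI is the concentration that stops growth completely.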

What was measured:
Experiment in all cases: NCI-60 cell line screen, 48 h
ACHN renal = system: ACHN renal
U251 CNS = system: U251 CNS
SF-268 CNS = system: SF-268 CNS
COLO 205 colon = system: COLO 205 colon
EKVX NSCLC = system: EKVX NSCLC
SNB-75 CNS = system: SNB-75 CNS
NCI-H226 lung = system: NCI-H226 lung
CAKI-1 renal = system: CAKI-1 renal
SK-MEL-2 melanoma = system: SK-MEL-2 melanoma
NCI-H522 lung = system: NCI-H522 lung

SMILES | TGI (ACHN renal) [µM] | TGI (U251 CNS) [µM] | TGI (SF-268 CNS) [µM] | TGI (COLO 205 colon) [µM] | TGI (EKVX NSCLC) [µM] | TGI (SNB-75 CNS) [µM] | TGI (NCI-H226 lung) [µM] | TGI (CAKI-1 renal) [µM] | TGI (SK-MEL-2 melanoma) [µM] | TGI (NCI-H522 lung) [µM] | GI50 (ACHN renal) [µM] | GI50 (SF-268 CNS) [µM] | GI50 (EKVX NSCLC) [µM] | GI50 (SNB-75 CNS) [µM] | GI50 (NCI-H226 lung) [µM] | GI50 (CAKI-1 renal) [µM] | GI50 (SK-MEL-2 melanoma) [µM]
Cc1nc2c3c(ncn2n1)Oc1c(c(-c2ccccc2)nn1-c1ccccc1)C3c1ccc(Cl)cc1 (centres undefined) | > 100 | > 100 | > 100 | > 100 | > 100 | > 100 | > 100 | > 100 | > 100 |  |  |  |  |  |  |  | 
N#Cc1nc(CCCCCN2C(=O)c3ccccc3C2=O)oc1N | > 100 | > 100 | > 100 | > 100 | > 100 |  | > 100 | > 100 | > 100 | 75.2 |  |  |  |  |  |  | 
O=C(NCc1cccc(C(F)(F)F)c1)c1cc2sccc2nc1C(F)(F)F | > 100 | > 100 | > 100 | > 100 | > 100 |  | > 100 | > 100 | > 100 | > 100 |  |  |  |  |  |  | 
Cc1ccc(C2=NOC(=O)[C@@H]3CCCC[C@@H]23)cc1 | > 100 | > 100 | > 100 | > 100 | > 100 | > 100 | > 100 | > 100 |  | > 100 |  |  |  |  |  |  | 
CC[N+]1(C)CCC(O)(/C=C/c2ccc(OC)cc2)C(C(=O)/C=C/c2ccc(OC)cc2)C1 (centres undefined) | 23.2 | 33.9 | > 59.7 | 8.08 | > 71.1 | 40.6 | > 100 | 3.93 | 39.7 |  |  |  |  |  |  |  | 
COC(=O)[C@H]1[C@@H](C(C)C)O[C@@H](C(C)C)O[C@H]1C(F)(F)F | > 100 | > 100 | > 100 | > 100 | > 100 | > 100 | > 100 | > 100 |  | > 100 |  |  |  |  |  |  | 
C[C@@H](O)C(=O)N1[C@@H]2CC3CC[C@]2(CS1(=O)=O)C3(C)C | > 100 | > 100 |  | > 100 | > 100 | > 100 | 65.3 | > 100 | > 100 |  |  |  |  |  |  |  | 
Clc1ccc(N2N=C(c3cccc(Nc4ccncc4)c3)CC2c2ccc3c(c2)OCO3)cc1 (centres undefined) | 3.13 |  | 3.32 |  | 13.3 | 5.68 | 33.1 | 2.9 | 4.59 |  | 1.65 | 1.63 | 2.9 | 1.58 | 7.28 | 1.44 | 2.09
Cc1cc(=O)n2nc(SCc3ccccc3)sc2n1 | 56.2 | > 100 | > 100 | > 100 |  | > 100 | > 100 |  |  | > 100 |  |  |  |  |  |  | 
Cc1cc(O)c(C(C)C)cc1SC#N | 30.1 | 31.8 | 49.3 | 40.5 |  | 22.5 |  | 28.2 | 35.7 | 24.9 |  |  |  |  |  |  | 
Cc1ccccc1-n1c(C)nc2c1C(=O)c1ccccc1C2=O | > 100 | > 100 | > 100 |  | > 100 |  | > 100 | > 100 | > 100 | 68.3 |  |  |  |  |  |  | 
O=[N+]([O-])c1ccc(S[C@@H]2[C@H]3c4c(-c5ccccc5)[nH]c(-c5ccccc5)c4[C@@H]2C[C@H]3Cl)cc1 | > 100 | > 100 | 25.7 | > 100 |  | 8.29 | > 100 | > 100 | 70.9 | 14.1 |  |  |  |  |  |  | 
COC(=O)C1CCC(=O)N1C(=O)Cc1ccc(OC)cc1 (centres undefined) | > 100 | > 100 | > 100 | > 100 | > 100 | > 100 | > 100 | > 100 |  | > 100 |  |  |  |  |  |  | 
N#CC(C#N)=C1C(C#N)=C(N)NC12OCCO2 | > 100 | > 100 | > 100 | > 100 | > 100 |  | > 100 | > 100 | > 100 | > 100 |  |  |  |  |  |  | 
Cc1ccc(S(=O)(=O)NNC(=O)c2cc(C)ccc2NC(=O)C23CC4CC(CC(C4)C2)C3)cc1 | 44.1 | > 100 | > 100 | > 100 | > 100 |  | > 100 | > 100 |  | 76.3 |  |  |  |  |  |  | 
COc1cc2c(cc1OCCCC(=O)Nc1cc(C(=O)Nc3cc(C(=O)Nc4cc(C(=O)NCCCN(C)C)n(C)n4)n(C)n3)n(C)n1)N=CC1CCCN1C2=O (centres undefined) | 38.4 | > 100 | 89.3 | > 100 | > 100 | 52.6 | 48.1 | 61.5 | 48 |  |  |  |  |  |  |  | 
N=c1oc2ccc3ccccc3c2cc1C(N)=O | > 100 | > 100 | > 100 | > 100 |  | > 100 | > 100 | > 100 | 49.4 |  |  |  |  |  |  |  | 
CC1(C)OCC(C(O)C2OC(C)(C)OC2C=O)O1 (centres undefined) | > 100 | > 100 | > 100 | > 100 | > 100 | > 100 | > 100 |  | > 100 |  |  |  |  |  |  |  | 
